Measurements: patent US20050261189A1, “Methods of promoting cardiac cell proliferation” (Hydra Biosciences, Inc., priority 2004, published 2005)

Tests used:
[1] = system: neonatal rat cardiomyocytes; experiment: Neonatal rat cardiomyocyte proliferation, DNA synthesis by BrdU incorporation; type: cell-based; conditions: for cardiomyocyte proliferation: 48 hours, FIG. 22
Procedure: Neonatal rat cardiomyocytes were isolated from postnatal day 2 Wistar rat pups. Rat pups were anesthetized by hypothermia in ice water for 10 min and euthanized by decapitation. Hearts were isolated and placed in PBS-G (KCl 2 g/L; KH2PO4 2 g/L; NaCl 80 g/L; Na2HPO4.7H20 21.6 g/L; D-glucose 10 g/L) on ice. The atria were removed and ventricles were washed in PBS-G and cut into pieces smaller than 2 millimeters. PBS-G containing 119.6 units/ml collagenase type 2 and 0.2 mg/ml pancreatin was warmed to 37° C. Amounts of collagenase were adjusted for batch variations in units/mg activity. Ventricles were dissociated in collagenase/pancreatin solution for 15 minutes on a rotator at 37° C. Tissue was dispersed gently by pipetting and allowed to settle for 5 min at room temperature. Cell suspension from first dissociation was discarded and replaced with fresh collagenase/pancreatin solution, and incubated at 37° C. for 15 minutes on an orbital shaker. Tissue was again dispersed and allowed to settle. The cell supension was transferred to a new tube and incubated an additional 5 min at 37° C., and the digestion was stopped by addition of an equal volume of DMEM/20% NCS and stored on ice. Digestion of the ventricular tissue was repeated 3 additional times and supernatants were collected and stored on ice in equal volumes of DMEM/20% NCS.
Cells from all the fractions were collected at 200 RCF for 6 min at room temperature. Cell pellets were resuspended in 2 ml ADS buffer (6.8 g/L NaCl, 0.4 g/L KCl, 1.0 g/L D-glucose, 1.5 g/L NaH2PO4, 4.75 g/L HEPES, 0.1 MgSO4.7H2O). One ml of cell suspension was applied to two Percoll gradients set up in the following manner. The top Percoll gradient (density 1.059 g/ml) was generated by mixing Percoll stock with ADS buffer in a 9:11 ratio, and the bottom Percoll gradient (density 1.082 g/ml) was made by mixing Percoll stock and ADS buffer in a 13:7 ratio. Four ml Top Percoll was added to a 15 ml conical tube, and three ml Bottom Percoll was laid below it by placing a pipet tip at the bottom of the tube, then carefully withdrawing it as the solution was delivered. The gradients were centrifuged at 3000 rpm for 30 consecutive minutes at room temperature. Cardiac non-myocytes were located above the top percoll buffer while cardiac myocytes were located at the interface of the top and bottom percoll layers. Blood and undissociated tissue were found at the bottom of the tube. Cardiac myocytes were collected after the top percoll was aspirated, and resuspended in DMEM/10% FBS, then centrifuged at 200 RCF for 6 min. Pelleted myocytes were resuspended in plating medium containing DMEM with 25 mM HEPES, 5% horse serum, 4 mM glutamine, penicillin and streptomycin. Four volumes of DMEM/10% FBS were added and the cell suspension was passed through a 40 uM cell strainer. Cells were pre-plated in 10 cm tissue culture plates for 1 hour at 37° C. Unattached cells were collected from the medium and centrifuged at 200 RCF for 6 min. Pelleted myocytes were resuspended in plating medium containing 10 uM AraC at a density of 100000 cells/ml and 200 ul/well were distributed into 96 well plates which had previously been coated with 0.1% gelatin/12.5 ug/ml fibronectin at 37° C. for more than 4 hours. Plated cells were grown for at least 48 hours at 37° C. prior to use in further experiments.
Briefly, the experiments summarized in FIG. 15 and FIG. 16 were conducted as follows. Neonatal rat cardiomyocytes were prepared and cultured as outlined in example 1. […]

beta-catenin = experiment: Nuclear beta-catenin assay in rat neonatal cardiomyocytes; type: cell-based; conditions: 16 hours, FIG. 23
Source text: We have used a nuclear beta-catenin assay to readily identify Wnt-related polypeptides that promote Wnt signaling via the canonical Wnt signaling pathway in cardiac cells. Specifically, and by way of example, we conducted a nuclear beta-catenin assay in rat neonatal cardiomyocytes to identify Wnt-related polypeptides that promote Wnt signaling via the canonical Wnt signaling pathway in cardiomyocytes. Such an assay conducted in neonatal or adult cardiac cells including, but not limited to, cardiomyocytes can be used to identify candidate agents that are capable of promoting Wnt signaling via the canonical Wnt signaling pathway in cardiac cells.
Briefly, neonatal cardiomyocytes were prepared and plated as outlined in detail above. Cells were washed two times with serum-free medium and were incubated in medium containing either a recombinant Wnt-related polypeptide, or some control factor. Cells were incubated for 16 hours, were fixed in 4% Formaldehye for 10 minuntes at room temperature, and were permeabilized with 0.2% Triton X-100 for 5 minutes. […] Although beta-catenin is not typically detectable by immunocytochemistry in the absence of active Wnt signaling, the nuclei were counterstained with 4′,6-diamidino-2-phenylindole (DAPI) to specifically confirm that the detected beta-catenin expression was localized to the nucleus. […]
Neonatal cardiomyocytes were cultured under one of the following conditions: medium alone (negative control), 10 mM LiCl, 2% fetal calf serum (FCS), 10% fetal calf serum (FCS), 25 ng/ml recombinant mouse Wnt5A (Catalog# 645-WN/CF), 50 ng/ml recombinant mouse Wnt5A (Catalog# 645-WN/CF), 100 ng/ml recombinant mouse Wnt5A (Catalog# 645-WN/CF), 25 ng/ml recombinant mouse Wnt3A (Catalog # 1324-WN/CF), 50 ng/ml recombinant mouse Wnt3A (Catalog # 1324-WN/CF), or 100 ng/ml recombinant mouse Wnt3A (Catalog # 1324-WN/CF). Following culture under one of the foregoing conditions, cells were analyzed by immunocytochemistry for expression of beta-catenin protein, and nuclear localization was verified by counterstaining the cells with DAPI. […]

[2] = system: neonatal rat cardiomyocytes; experiment: Hypertrophic response: ANF and tropomyosin immunocytochemistry in neonatal rat cardiomyocytes; conditions: Wnt3A 150 ng/ml, phenylephrine as hypertrophic stimulus
Procedure: Briefly, neonatal rat cardiomyocytes were treated with serum or phenylephrine (two agents known to induce hypertrophy), or were treated with 150 ng/ml recombinant Wnt3A. Following treatment, the cells were analyzed by immunocytochemistry for expression of atrial naturietic factor (ANF) (rabbit anti-ANF/Peninsula laboratories/Bachem) or expression of tropomyosin (CH1 antibody available from Developmental Hybridoma).

β-catenin = β-catenin stabilization by immunocytochemistry in neonatal rat cardiomyocytes; type: cell-based; conditions: 48 hours in neonatal base medium; recombinant Wnt3A 167 ng/ml or 500 ng/ml, or serum; FIG. 19
Procedure: Briefly, neonatal rat cardiomyocytes were treated with either serum or with recombinant Wnt3A (e.g., 167 ng/ml or 500 ng/ml) in neonatal base medium for 48 hours. The treated cells were fixed, permeablilized with 0.5% Triton-X-100 for 15 minutes, and blocked in 5% goat serum in PBS-T for one hour. Mouse anti-β-catenin antibody (BD-Pharmingen) diluted 1:250 were incubated on cells for one hour. Cells were washed 3 times in PBS-T and incubated one hour in Alexa 594 goat anti-mouse antibody (Molecular Probes) at a dilution of 1:200.

[3] = system: unfractionated adult cardiac cells; experiment: Viable cell count, unfractionated adult cardiac cells; type: cell-based, mouse; conditions: unfractionated (whole heart) preparations, 3-4 days culture; recombinant Wnt3A at 50 ng/ml; FIGS. 24, 25a
Procedure: (§1) Whole hearts were obtained from adult mice (greater than 5 weeks of age). Cardiac tissue was minced and washed three times to remove blood. Cardiac cells were dissociated with pancreatin and collagenase for 15 minutes at 37° C. and washed. Following dissociation the unfractionated cells were either plated, or fractionated into a Sca1+ and Sca1− population prior to plating. These three cardiac cell populations (unfractionated cell preparation; Sca1+cell preparation; Sca1− cell preparation) were cultured in the presence of various Wnt-related compositions. Specifically, the cardiac cell preparations were cultured for 3-4 days in either L-cell conditioned medium alone; LWW60 conditioned medium; or culture medium containing purified Wnt3A protein. Following 3-4 days in culture, the cardiac cells were washed with PBS and trypsinized, and viable cells were counted.

Sca1+ cell preparation = experiment: Viable cell count, Sca1+ adult cardiac cell preparation; type: cell-based, mouse; conditions: Sca1+ cell preparations, 3-4 days culture; recombinant Wnt3A at 50 ng/ml; FIG. 25a
Procedure: as §1

[4] = system: one or more non-cardiac cells types; conditions: cited from earlier work
[5] = system: Wnt3A induced cardiomyocyte proliferation; experiment: Wnt antagonists co-administered with Wnt3A-L-cell supernatant, cardiomyocyte proliferation; type: cell-based, rat; conditions: 100 ng/ml of the Wnt inhibitor; FIG. 18
Procedure: To confirm that Wnt3A was responsible for the stimulation of cardiomyocyte proliferation observed in FIG. 17, we co-administered supernatant from Wnt3A expressing mouse L-cells and the Wnt antagonist dkk (recombinant dkk obtained from R&D Systems).
Nevertheless, the inhibition of Wnt3A induced cardiomyocyte proliferation by dkk supports the conclusion that Wnt3A is the active cardiomyocyte proliferative factor in the conditioned medium.
The experiments were conducted and analyzed as detailed above in examples 2 and 3.

[6] = recombinant mouse Wnt protein 25 ng/ml-100 ng/ml

[Cl-].[Li+] [LiCl, lithium chloride, reference compound]
cardiomyocyte proliferation ([1]; LiCl 10 mM, 5 mM or 2.5 mM): promoted cardiomyocyte proliferation
beta-catenin nuclear localization (percentage of cells with nuclear beta-catenin staining) (beta-catenin; 10 mM LiCl, versus medium alone or 2% or 10% serum): promoted beta-catenin nuclear localization

CNC[C@H](O)c1cccc(O)c1 [phenylephrine]
ANF expression increased ([2]; FIG. 20): increased
change in cardiomyocyte cell size and shape ([2]; FIG. 21): vastly different cell shape, size, and morphology

Wnt3A
cardiomyocyte proliferation level compared with serum ([1]; higher doses of Wnt3A, FIG. 16): comparable to serum
cardiomyocyte proliferation ([1]; recombinant Wnt3A 150, 50 or 17 ng/ml): promoted cardiomyocyte proliferation
cardiomyocyte proliferation, dilution series ([1]; recombinant Wnt3A dilution series, FIG. 16): promoted cardiomyocyte proliferation in a dose dependent manner
cardiomyocyte proliferation, as measured by incorporation of BrdU ([1]; recombinant mouse Wnt3A 0.06, 0.4, 2.3, 14, 83 and 500 ng/ml, FIG. 15): statistically significant, dose dependent increase in cardiomyocyte proliferation
stabilization of β-catenin (increased detection and nuclear localization), Wnt signaling (β-catenin): resulted in stabilization of β-catenin
beta-catenin nuclear localization (percentage of cells with nuclear beta-catenin staining) (beta-catenin; [6]): promoted beta-catenin nuclear localization
number of viable cells [3]: also increased the number of viable cells
number of viable cells (Sca1+ cell preparation): also increased the number of viable cells
Wnt signaling pathway shown in one or more non-cardiac cell types [4]: signal via the canonical pathway

B1: FRP2: Wnt inhibitor, secreted frizzled-related protein class (protein, UniProt Q96HF1 25-295, looked up)
Secreted frizzled-related …: LFLFGQPDFSYKRSNCKPIPANLQLCHGIEYQNMRLPNLLGHETMKEVLEQAGAWIPLVMKQCHPDTKKFLCSLFAPVCLDDLDETIQPCHSLCVQVKDRCAPVMSAFGFPWPDMLECDRFPQDNDLCIPLASSDHLLPATEEAPKVCEACKNKNDDDNDIMETLCKNDFALKIKVKEITYINRDTKIILETKSKTIYKLNGVSERDLKKSVLWLKDSLQCTCEEMNDINAPYLVMGQKQGGELVITSVKRWQKGQREFKRISRSIRKLQC
abolition of Wnt3A induced cardiomyocyte proliferation [5]: did not

B2: FRP3: Wnt inhibitor, secreted frizzled-related protein class (protein, UniProt Q92765 33-325, looked up)
Secreted frizzled-related …: AACEPVRIPLCKSLPWNMTKMPNHLHHSTQANAILAIEQFEGLLGTHCSPDLLFFLCAMYAPICTIDFQHEPIKPCKSVCERARQGCEPILIKYRHSWPENLACEELPVYDRGVCISPEAIVTADGADFPMDSSNGNCRGASSERCKCKPIRATQKTYFRNNYNYVIRAKVKEIKTKCHDVTAVVEVKEILKSSLVNIPRDTVNLYTSSGCLCPPLNVNEEYIIMGYEDEERSRLLLVEGSIAEKWKDRLGKKVKRWDMKLRHLGLSKSDSSNSDSTQSQKSGRNSNPRQARN
abolition of Wnt3A induced cardiomyocyte proliferation [5]: did not

B3: Wnt5A: recombinant mouse Wnt5A (Catalog# 645-WN/CF) (protein, UniProt P22725 62-380, looked up)
Protein Wnt-5a: IIGAQPLCSQLAGLSQGQKKLCHLYQDHMQYIGEGAKTGIKECQYQFRHRRWNCSTVDNTSVFGRVMQIGSRETAFTYAVSAAGVVNAMSRACREGELSTCGCSRAARPKDLPRDWLWGGCGDNIDYGYRFAKEFVDARERERIHAKGSYESARILMNLHNNEAGRRTVYNLADVACKCHGVSGSCSLKTCWLQLADFRKVGDALKEKYDSAAAMRLNSRGKLVQVNSRFNSPTTQDLVYIDPSPDYCVRNESTGSLGTQGRLCNKTSEGMDGCELMCCGRGYDQFKTVQTERCHCKFHWCCYVKCKKCTEIVDQFVCK
beta-catenin nuclear localization (percentage of cells with nuclear beta-catenin staining) (beta-catenin; [6]): did not promote beta-catenin nuclear localization
Wnt signaling pathway shown in one or more non-cardiac cell types [4]: signal via the non-canonical signaling pathway
